What was measured:
[1] = Solubility of the salt as ammonia metal complex; format: physicochemical; details: impossible in aqueous solution
Description: In FIG. 6 it is observed the absorption spectrum UV/Visible which confirms this structure.
The shift toward smaller wavelengths gives an account of the formation of ammonia metal complex which is observed in an increase of the solubility of the salt in this solution which allows to reach fluoride concentrations close to 30,000 ppm, which is impossible in aqueous solution.

(TPH1) human cells = assay: Cell viability by mitochondrial activity assay (MTT); format: cell-based; details: FIG. 2
Description: FIG. 2. Cell viability assay using mitochondrial activity technique (MTT). THP1 cell type.

[2] = tested on: main bacterial species associated with dental caries; assay: In vitro antibacterial capacity, inhibition halos; format: cell-based; details: composition: 25,000 ppm aqueous (Cu(NH3)6)F2 ammonia with 0.002 g/ml graphite oxide; FIG. 1
Description: FIG. 1. […] The dark zone corresponds to the area where there is no bacterial growth. […] A) Chlorhexidine, B) Silver Diamine Fluorine, C) Silane Fluorine, D) Composition of the Invention. […] These tests have been performed on the main bacterial species associated with dental caries.

SMILES | fluoride concentrations reached in ammonia solution [1] | toxicity (in words) ((TPH1) human cells) | areas of inhibition halos [2] [mm^2]
N.N.N.N.N.N.[Cu+2].[F-].[F-] [Cu(NH3)6F2] | ~30,000 ppm | – | –
[H]/N=C(\N/C(=N/[H])NCCCCCCNC(=N)NC(=N)Nc1ccc(Cl)cc1)Nc1ccc(Cl)cc1 [chlorhexidine] | – | a degree of toxicity | 659
